Columns and labels:
[1] = tested on: HP1 (TAMRA at T37) (DNA, hairpin, T37 replaced by 2'-deoxyuridine bearing TAMRA at C5) CCTGGAGAGGAAGCCAAGTGTTTTCACTTGGCTTCCTCTCCAGG; test: fluorescence titration; conditions: 50 mM NaCl; 10 mM HEPES, 1 mM EDTA, pH 7.4, 25 °C
[2] = tested on: HP1 (TAMRA at T34) (DNA, hairpin, T34 replaced by 2'-deoxyuridine bearing TAMRA at C5) CCTGGAGAGGAAGCCAAGTGTTTTCACTTGGCTTCCTCTCCAGG; test: fluorescence titration; conditions: 50 mM NaCl; 10 mM HEPES, 1 mM EDTA, pH 7.4, 25 °C
[3] = tested on: HP2 unlabeled (DNA, hairpin) GCTAGATATATAGCTTTTTAGCTATATATCTAGC; test: competition fluorescence titration; conditions: 50 mM NaCl; 10 mM HEPES, 1 mM EDTA, pH 7.4, 25 °C; TAMRA-HP2 complex displaced

| Compound | Kd [1] [nM] | also measured |
| --- | --- | --- |
| CN(C)CCCNC(=O)CCNC(=O)c1cc(NC(=O)CCNC(=O)c2cc(NC(=O)c3cc(NC(=O)CCCNC(=O)c4nc(NC(=O)c5cc(NC(=O)c6nc(NC(=O)c7nccn7C)cn6C)cn5C)cn4C)cn3C)cn2C)cn1C | 50 ± 15 | – |
| CN(C)CCCNC(=O)CCNC(=O)c1cc(NC(=O)c2cc(NC(=O)c3cc(NC(=O)c4cc(NC(=O)CCCNC(=O)c5nc(NC(=O)CCNC(=O)c6nc(NC(=O)c7nccn7C)cn6C)cn5C)cn4C)cn3C)cn2C)cn1C | 140 ± 30 | – |
| CN(C)CCCNC(=O)CCNC(=O)c1cc(NC(=O)c2cc(NC(=O)c3nc(NC(=O)CCCNC(=O)c4cc(NC(=O)c5nc(NC(=O)c6nccn6C)cn5C)cn4C)cn3C)cn2C)cn1C | 7.8 ± 1.6 | – |
| CN(C)CCCNC(=O)CCNC(=O)c1cc(NC(=O)c2cc(NC(=O)c3nc(NC(=O)c4cc(NC(=O)CCCNC(=O)c5cc(NC(=O)c6cc(NC(=O)c7nc(NC(=O)c8nccn8C)cn7C)cn6C)cn5C)cn4C)cn3C)cn2C)cn1C | 2.3 ± 0.3 | – |
| CN(C)CCCNC(=O)CCNC(=O)c1cc(NC(=O)c2nc(NC(=O)c3nc(NC(=O)c4cc(NC(=O)CCCNC(=O)c5cc(NC(=O)c6cc(NC(=O)c7cc(NC(=O)c8nccn8C)cn7C)cn6C)cn5C)cn4C)cn3C)cn2C)cn1C | – | Kd [2]: 11.4 ± 1 nM |
| CN(CCCN)CCCNC(=O)CCNC(=O)c1cc(NC(=O)c2cc(NC(=O)c3cc(NC(=O)c4cc(NC(=O)CCNC(=O)c5cc(NC(=O)c6cc(NC(=O)CCCNC(=O)c7cc(NC(=O)c8cc(NC(=O)c9cc(NC(=O)CCNC(=O)c%10cc(NC(=O)c%11cc(NC(=O)c%12nccn%12C)cn%11C)cn%10C)cn9C)cn8C)cn7C)cn6C)cn5C)cn4C)cn3C)cn2C)cn1C | – | Kd [3]: 1.8 nM |

Source: paper PMC3299850 (2012)
